Here are results for 24 compounds from patent publication US8440666B2, “Pyridazinone compounds and P2X7 receptor inhibitors” (Nissan Chemical Industries, Ltd., priority 2007, dated 2013).

The structures appear in SMILES notation. Where a name gives a salt, the structure may show the parent alone.

This experiment concerns the target T1, Human P2X7 (hP2X7) receptor (Homo sapiens, UniProt Q99572).
T1 construct: myc-His (from the pcDNA3.1/myc-HisA vector); expressed in transfected cells
T1 sequence (Q99572 1-595): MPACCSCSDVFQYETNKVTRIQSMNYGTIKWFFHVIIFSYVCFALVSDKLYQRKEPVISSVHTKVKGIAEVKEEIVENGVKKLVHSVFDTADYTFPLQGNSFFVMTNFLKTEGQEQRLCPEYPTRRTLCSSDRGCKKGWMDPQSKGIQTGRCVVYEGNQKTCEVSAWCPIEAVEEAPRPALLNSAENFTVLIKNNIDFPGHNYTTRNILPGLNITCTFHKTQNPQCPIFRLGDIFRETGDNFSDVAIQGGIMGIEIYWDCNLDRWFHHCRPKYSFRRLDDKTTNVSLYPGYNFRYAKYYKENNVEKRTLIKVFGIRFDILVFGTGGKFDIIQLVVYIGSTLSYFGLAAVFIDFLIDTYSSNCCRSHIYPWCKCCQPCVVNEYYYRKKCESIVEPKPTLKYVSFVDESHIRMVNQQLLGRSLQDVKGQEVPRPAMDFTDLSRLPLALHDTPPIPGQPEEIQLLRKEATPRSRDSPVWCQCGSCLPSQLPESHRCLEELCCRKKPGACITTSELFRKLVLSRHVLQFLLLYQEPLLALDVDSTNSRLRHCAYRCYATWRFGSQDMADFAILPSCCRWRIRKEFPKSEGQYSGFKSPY
The experiment in a line: Dye assay: BzATP-induced Yo-Pro-1 uptake in HEK293 cells stably expressing hP2X7. The class given is cell-based. The following applies: BzATP (0.1 mM)-induced Yo-Pro-1 uptake, compounds 30 min pre-treatment, 90 min incubation. The text has this: Human P2X7 (hP2×7) was cloned from a normal human brain total RNA library by reverse transcription (using SuperScript II (Invitrogen)) and PCR (using KOD-plus-(TOYOBO)). PCR primers were designed according to hP2X7 sequence registered in GENBANK with a putative amino acid sequence consisting of 595 amino acid residues. The PCR fragments were inserted into pcDNA3.1/myc-HisA vector (Invitrogen) and sequenced for confirmation.
HEK293 cells were transfected with hP2×7/pcDNA3.1/myc-HisA by lipofection, and 1 day later, the cells were treated with 1 mg/mL G418, and resistant cells were selected by appropriately dilution. The resistant cells were cloned by reseeding at a low density.
P2X7 receptor antagonists were screened by a dye uptake assay using HEK293 cells stably expressing hP2×7. Cells were plated on a type I collagen-coated black/clear bottom 96-well plate at 20000 cells/well and a day later, treated with varying concentrations of various test compounds for 30 minutes, then treated with a dye (Yo-Pro-1) (final concentration 2 μM) and BzATP (final concentration 0.1 mM) and incubated for 90 minutes. Then, the fluorescence (indicating the BzATP-induced Yo-Pro-1 uptake mediated by the P2X7 receptor) was measured with a microplate reader (excitation wavelength: 485 nm, emission wavelength: 535 nm). The % inhibition rates were calculated and plotted against the logarithms of the concentrations to determine IC50.
A word on the IC50: it is the concentration needed to halve the response being measured. Turning to `CC(C(=O)NCc1ccncc1)n1ncc(N[C@@H]2C[C@@H]3C[C@H]([C@H]2C)C3(C)C)c(Br)c1=O` (stereo partly drawn) [Synthetic Example 46, 2-{5-Bromo-6-oxo-4-[(1R,2R,3R,5S)-2,6,6-trimethylbicyclo[3.1.1]hept-3-ylamino]pyridazin-1(6H)-yl}-N-(pyridin-4-ylmethyl)propanamide], the IC50 came to 14 nM. In the case of `CCOc1nn(CC(=O)c2ccc(N(CC)CC)cc2)c(=O)c(Cl)c1N[C@@H]1C[C@@H]2C[C@H]([C@H]1C)C2(C)C` [Synthetic Example 140], the IC50 came out at 15 nM. For `CSc1c(N[C@@H]2C[C@@H]3C[C@H]([C@H]2C)C3(C)C)cnn(CC(=O)NCc2ccncc2)c1=O` [Synthetic Example 146], the half-maximal inhibitory concentration (IC50) turned out to be 70 nM. With `Cc1c(N[C@@H]2C[C@@H]3C[C@H]([C@H]2C)C3(C)C)cnn(CC(=O)NCc2ccncc2)c1=O` [Synthetic Example 154, 2-{5-Methyl-6-oxo-4-[(1R,2R,3R,5S)-2,6,6-trimethylbicyclo[3.1.1]hept-3-ylamino]pyridazin-1(6H)-yl}-N-(pyridin-4-ylmethyl)acetamide], the half-maximal inhibitory concentration (IC50) was determined as 22 nM.

As for `C[C@@H]1[C@H]2C[C@@H](C[C@H]1Nc1cnn(CC(=S)NCc3ccncc3)c(=O)c1Br)C2(C)C` [Synthetic Example 156, 2-{5-Bromo-6-oxo-4-[(1R,2R,3R,5S)-2,6,6-trimethylbicyclo[3.1.1]hept-3-ylamino]pyridazin-1(6H)-yl}-N-(pyridin-4-ylmethyl)ethanethioamide], the 50% inhibitory concentration (IC50) was determined as 24 nM.

`C[C@@H]1[C@H]2C[C@@H](C[C@H]1Nc1cnn(CC(=O)NCc3cc[n+]([O-])cc3)c(=O)c1Br)C2(C)C` [Synthetic Example 158, 4-[(2-{5-Bromo-6-oxo-4-[(1R,2R,3R,5S)-2,6,6-trimethylbicyclo[3.1.1]hept-3-ylamino]pyridazin-1(6H)-yl}acetamido)methyl]pyridine 1-oxide]: the IC50 is 45 nM. With `CCN(CC)c1ccc(C(Cn2ncc(N[C@@H]3C[C@@H]4C[C@H]([C@H]3C)C4(C)C)c(Br)c2=O)=NOC)cc1` [Synthetic Example 159, 4-Bromo-2-{2-[4-(diethylamino)phenyl]-2-(methoxyimino)ethyl}-5-[(1R,2R,3R,5S)-2,6,6-trimethylbicyclo[3.1.1]hept-3-ylamino]pyridazin-3(2H)-one], the 50% inhibitory concentration (IC50) was determined as 77 nM. For the compound `C[C@@H]1[C@H]2C[C@@H](C[C@H]1Nc1cnn(-c3cccc(C(=O)NCc4ccncc4)c3)c(=O)c1Br)C2(C)C` [Synthetic Example 162, 3-{5-Bromo-6-oxo-4-[(1R,2R,3R,5S)-2,6,6-trimethylbicyclo[3.1.1]hept-3-ylamino]pyridazin-1(6H)-yl}-N-(pyridin-4-ylmethyl)benzamide], the IC50 came to 51 nM. The result for `C[C@@H]1[C@H]2C[C@@H](C[C@H]1Nc1cnn(CC(=O)NCc3ccncc3)c(=O)c1-c1ccncc1)C2(C)C` [Synthetic Example 379, 2-[6-Oxo-5-(pyridin-4-yl)-4-{[(1R,2R,3R,5S)-2,6,6-trimethylbicyclo[3.1.1]hept-3-yl]amino}pyridazin-1(6H)-yl]-N-(pyridin-4-ylmethyl)acetamide] reads 240 nM; that for `CCC(NC(=O)Cn1ncc(NC2C[C@@H]3CC([C@H]2C)C3(C)C)c(OC(F)F)c1=O)c1ccncc1` (stereo partly drawn) [Synthetic Example 382], 25 nM.

Turning to `CCC(NC(=O)Cn1ncc(NC2C[C@@H]3CC([C@H]2C)C3(C)C)c(OC)c1=O)c1ccncc1` (stereo partly drawn) [Synthetic Example 385], the IC50 is 39 nM.

On to `C[C@@H]1[C@H]2C[C@@H](C[C@H]1Nc1cnn(CC(=O)NCc3ccncc3)c(=O)c1C#N)C2(C)C` [Synthetic Example 387, 2-[5-Cyano-6-oxo-4-{[(1R,2R,3R,5S)-2,6,6-trimethylbicyclo[3.1.1]hept-3-yl]amino}pyridazin-1(6H)-yl]-N-(pyridin-4-ylmethyl)acetamide], for which the IC50 is 37 nM. As for `C[C@@H]1[C@H]2C[C@@H](C[C@H]1Nc1c(O)nn(CC(=O)NCc3ccncc3)c(=O)c1Cl)C2(C)C` [Synthetic Example 390, 2-[5-Chloro-3-hydroxy-6-oxo-4-{[(1R,2R,3R,5S)-2,6,6-trimethylbicyclo[3.1.1]hept-3-yl]amino}pyridazin-1(6H)-yl]-N-(pyridin-4-ylmethyl)acetamide Hydrochloride], the IC50 came to 270 nM.

With `C[C@@H]1[C@H]2C[C@@H](C[C@H]1Nc1cnn(Cc3ccncc3)c(=O)c1Br)C2(C)C` [Synthetic Example 394, 4-Bromo-2-(pyridin-4-ylmethyl)-5-{[(1R,2R,3R,5S)-2,6,6-trimethylbicyclo[3.1.1]hept-3-yl]amino}pyridazin-3(2H)-one], the concentration for half-maximal inhibition (IC50) was 220 nM.

For the compound `CCC(NC(=O)Cn1ncc(N[C@@H]2C[C@@H]3C[C@H]([C@H]2C)C3(C)C)c(Cl)c1=O)C(N)=O` (stereo partly drawn) [Synthetic Example 402, 2-({[5-Chloro-6-oxo-4-{[(1R,2R,3R,5S)-2,6,6-trimethylbicyclo[3.1.1]hept-3-yl]amino}pyridazin-1(6H)-yl]acetyl}amino)butanamide], the 50% inhibitory concentration (IC50) came out at 120 nM. For `C[C@@H]1[C@H]2C[C@@H](C[C@H]1Nc1cnn(CC(=O)NC(C(=O)O)c3ccccc3)c(=O)c1Br)C2(C)C` (stereo partly drawn) [Synthetic Example 403, ({[5-Bromo-6-oxo-4-{[(1R,2R,3R,5S)-2,6,6-trimethylbicyclo[3.1.1]hept-3-yl]amino}pyridazin-1(6H)-yl]acetyl}amino)(phenyl)acetic Acid], the IC50 was 74 nM.

Take `C[C@@H]1[C@H]2C[C@@H](C[C@H]1Nc1cnn(CC(=O)NC(C(N)=O)c3ccccc3)c(=O)c1Br)C2(C)C` (stereo partly drawn) [Synthetic Example 404, N-(2-Amino-2-oxo-1-phenylethyl)-2-[5-bromo-6-oxo-4-{[(1R,2R,3R,5S)-2,6,6-trimethylbicyclo[3.1.1]hept-3-yl]amino}pyridazin-1(6H)-yl]acetamide]: the half-inhibitory concentration (IC50) was 47 nM. For `C[C@@H]1[C@H]2C[C@@H](C[C@H]1Nc1cnn(C(F)C(=O)NCc3ccncc3)c(=O)c1Br)C2(C)C` (stereo partly drawn) [Synthetic Example 405, [5-Bromo-6-oxo-4-{[(1R,2R,3R,5S)-2,6,6-trimethylbicyclo[3.1.1]hept-3-yl]amino}pyridazin-1(6H)-yl]-2-fluoro-N-(pyridin-4-ylmethyl)acetamide], the IC50 is 21 nM. Turning to `C[C@@H]1[C@H]2C[C@@H](C[C@H]1Nc1cnn(CC(=O)NCc3ccncc3)c(=O)c1C(=O)O)C2(C)C` [Synthetic Example 406, 3-Oxo-2-{2-oxo-2-[(pyridin-4-ylmethyl)amino]ethyl}-5-{[(1R,2R,3R,5S)-2,6,6-trimethylbicyclo[3.1.1]hept-3-yl]amino}-2,3-dihydropyridazine-4-carboxylic Acid], the IC50 stood at 40 nM. With `C[C@@H]1[C@H]2C[C@@H](C[C@H]1Nc1cnn(-c3cccc(C(=O)NCC4(O)CCCCCC4)c3)c(=O)c1Br)C2(C)C` [Synthetic Example 409, 3-[5-Bromo-6-oxo-4-{[(1R,2R,3R,5S)-2,6,6-trimethylbicyclo[3.1.1]hept-3-yl]amino}pyridazin-1(6H)-yl]-N-[(1-hydroxycycloheptyl)methyl]benzamide], the half-inhibitory concentration (IC50) was found to be 71 nM. Consider `C[C@@H]1[C@H]2C[C@@H](C[C@H]1Nc1cnn(CC(=O)NCc3ccncc3OCC#N)c(=O)c1Cl)C2(C)C` [Synthetic Example 415], for which the IC50 was found to be 39 nM. The result for `C[C@@H]1[C@H]2C[C@@H](C[C@H]1Nc1cnn(C3(C(=O)NCc4ccncc4)CCC3)c(=O)c1Br)C2(C)C` [Synthetic Example 420, 1-[5-Bromo-6-oxo-4-{[(1R,2R,3R,5S)-2,6,6-trimethylbicyclo[3.1.1]hept-3-yl]amino}pyridazin-1(6H)-yl]-N-(pyridin-4-ylmethyl)cyclobutanecarboxamide] reads 120 nM; that for `C[C@@H]1[C@H]2C[C@@H](C[C@H]1Nc1cnn(CC(=O)NC(CC(N)=O)c3ccncc3)c(=O)c1Br)C2(C)C` (stereo partly drawn) [Synthetic Example 428, 3-({[5-Bromo-6-oxo-4-{[(1R,2R,3R,5S)-2,6,6-trimethylbicyclo[3.1.1]hept-3-yl]amino}pyridazin-1(6H)-yl]acetyl}amino)-3-(pyridin-4-yl)propanamide], 27 nM.

On to `O=C(Cn1ncc(SC23CC4CC(CC(C4)C2)C3)c(Br)c1=O)NCc1ccncc1` [Synthetic Example 430, 2-[5-Bromo-6-oxo-4-(tricyclo[3.3.1.1^3,7]dec-1-ylsulfanyl)pyridazin-1-(6H)-yl]-N-(pyridin-4-ylmethyl)acetamide], for which the IC50 came to 58 nM.
